The values below come from publication PMC11054303, “Design and Synthesis of Novel N-Benzylidene Derivatives of 3-Amino-4-imino-3,5-dihydro-4H-chromeno[2,3-d]pyrimidine under Microwave, In Silico ADME Predictions, In Vitro Antitumoral Activities and In Vivo Toxicity” (Pharmaceuticals, 2024).

The structures appear in SMILES notation. “Also recorded” adds a separate entry of the source. Where only a bound is given, the exact number is not on record here.

Data set [1] concerns zebrafish Danio rerio embryos. In words: Zebrafish embryo toxicity assay (Zebratox, FET).
Procedure: Fertilized eggs at 24–48 h post-fertilization (hpf) were selected and transferred to a 96-well plate (1 embryo/well). […] DMSO (0.6%) was used as vehicle control for the test compounds. The exposure duration continued up to 72 hpf because it is the endpoint of embryonic development [41]. The dead embryos were eliminated, and the fertilized eggs were imaged at 0, 24, 48 and 72 hpf.
Eggs were collected 2 h post-fertilization (hpf) and kept in glass Petri dishes containing water for subsequent examination under a binocular microscope to confirm fertilization. […] Chemical treatments were performed by adding DMSO alone (negative control), or test molecule. These experiments were performed in four technical replicates.
The experiments were performed using a Zeiss inverted fluorescent microscope (Observer Z1). The zebrafish toxicological test (Zebratox) was realized as follows: the 24 h post-fertilization embryos were arrayed by hand with one embryo per well in black-walled 96-well microplates for fluorescence assays (Perkin Elmer, Waltham, MA, USA). The embryos were treated before hatching from 0 to 72 h post-fertilization. The 20 mM DMSO stock chemicals were diluted in fish water and added to the wells at final concentrations from 0.0 2µM to 5 μM. The negative control (0.25% DMSO) was added to each replicate plate. The experiments were realized in triplicate in three independent plates. […] The zebrafish fertilized eggs were provided by the ImPACcell-Biosit Zebrafish facilities (Rennes, France).
Data set [2] in a line: Antiproliferative assay, Caco2. The note with it: human, Caco-2; SI = IC50 fibroblasts/IC50 on Caco2; read-out: Selectivity Index (SI) Caco2. The class given is cell-based, human. How it is done: The potential antiproliferative activity of these novel 3-(N-phenylmethyliden)amino-4-imino-3,5-dihydro-4H-chromeno[2,3-d]pyrimidine 10(a-i) and 10-(N-phenylmethyliden)amino-11-imino-11H-naphto[1′,2′:5,6]pyrano[2,3-d]pyrimidine 10(j-l) was evaluated in a panel of eight tumoral cell lines and in diploid skin fibroblasts used as normal cell lines for control. For these antitumor assays, chosen cell lines represent diverse types of human cancer, which are, respectively, human hepatocellular carcinoma (Huh7 D12), human colon adenocarcinoma (Caco2), human breast adenocarcinoma (MDA-MB231), MDA-MB468 for human breast carcinoma which correspond to the Triple Negative Breast Cancer (TNBC), human colon carcinoma (HCT116), PC3 as cell line initiated from bone metastasis of grade IV prostatic adenocarcinoma from a person, MCF7 as breast cancer line isolated from a person and PANC1, as human pancreatic cancer cell line. The potential antiproliferative activity was preliminarily evaluated in vitro at a 25 μM single dose.
The IC50 was calculated from the full dose-response curve and used as a parameter for the antiproliferative activity of the new compounds.
Skin diploid fibroblastic cells were provided by BIOPREDIC International Company (Rennes, France). Huh-7D12 (Ref ECACC: 01042712), Caco2 (Ref ECACC: 86010202), MDA-MB-231 (Ref ECACC: 92020424), MDA-MB-468, HCT-116 (Ref ECACC: 91091005), PC3 (Ref ECACC: 90112714), and MCF7 cell lines were obtained from the ECACC collection. PANC1 cell lines, a generous gift of LBAI Inserm 1227 (Brest, France). Cells were grown according to ECACC recommendations in DMEM for Huh-D12, MDA-MB-231, MDA-MB-468 and fibroblast, in EMEM for Caco2, in McCoy’s for HCT-116 and RPMI for PC3 at 37 °C and 5% CO2. All culture media with 10% of FBS, 1% of penicillin-streptomycin and 2 mM glutamine.
Chemicals were solubilized in DMSO at a concentration of 10 mM (stock solution) and diluted in a culture medium to the desired final concentrations. […] The toxicity test of the chemicals on these cells was as follows: 2 × 10^3 cells for HCT-116 cells or 4 × 10^3 for the other cells were seeded in 96-multi-well plates in triplicate and left for 24 h for attachment, spreading and growing. Then, cells were exposed for 48 h to increasing concentrations of chemicals, ranging from 0.1 μM to 25 μM, in a final volume of 120 μL of culture medium. After 48 h of treatment, cells were washed in PBS and fixed in a cooled 90% ethanol/5% acetic acid solution for 20 min. The nuclei were stained with Hoechst 3342 (B2261 Merck Sigma-Aldrich) and counted. Image acquisition and analysis were performed using automated imaging analysis with a Cellomics Arrayscan VTI/HCS Reader (Thermo/Scientific, Waltham, MA, USA). The survival percentages were calculated as the percentage of cell number after chemical treatment over cell number after DMSO treatment. The IC50 was graphically determined.

For data set [3], the system named is Store-Operated Ca^+2 Entry (SOCE). In words: Store-operated calcium entry (SOCE) assay in HEK293 cells. The note with it: 1.25 to 50 μM added 5 min before recording, 2 μM thapsigargin, then 1.8 mM Ca2+. The class given is cell-based, human. On the procedure: Thapsigargin (TG), an inhibitor of endoplasmic reticulum Ca^+2-ATPase, is used to deplete intracellular calcium stores in a Ca^+2-free solution and therefore activate SOCE. […] In the context of a preliminary exploration of the functional effects of our molecules of interest and in the absence of a significant inhibition at a low concentration of compound 10h on the reference cell line we used (HEK293) no further exploration of the modulatory effect of this compound on cancer cell lines was initiated.
The HEK293 cell line was maintained in DMEM High Glucose with Sodium Pyruvate ([…]) and antibiotics (1% of penicillin/streptomycin) in a humidified incubator at 37 °C, supplemented with 5% of CO2.
For Ca^2+ measurement experiments, HEK293 cells were seeded overnight into 96 wells of a black clear bottom plate (Corning Ref: 3603) at […] in 100 µL culture medium. The resting medium was aspirated and cells were loaded with Fura-2 acetoxymethyl ester (Fura-2 QBT™) fluorochrome. […]
Intracellular calcium levels were evaluated by recording changes in the fluorescence of the dual-wavelength fluorescent calcium-sensitive dye Fura-2AM using the plate reader FlexStation 3™ (Molecular Devices, Sunnyvale, CA, USA). Dual excitation wavelength capability permits ratiometric measurements of Fura-2AM peak fluorescence emission at 510 nm after excitations at 340 and 380. […]

[4] abbreviates: 48 and 72 hpf treatment, up to 5 μM.

Take `COc1cccc2c1Oc1ncn(/N=C/c3ccccc3O)c(=N)c1C2` [10h, (3E) 3-N-(2-Hydroxyphenylmethylidene)amino-4-imino-9-methoxy-3,5-dihydro-4H-chromeno[2,3-d]pyrimidine]: in data set [1] (5 μM dose at 72 hpf), the “hatching of the embryos” value is recorded as “complete hatching” and the “toxic effect on zebrafish embryos” value is “no toxic effect; also recorded: without toxic effect”. For the same molecule, in data set [1] (setting [4]), the “hatching of the embryos” value is on record as “complete hatching” and the “toxic effect on zebrafish embryos” value is “no toxic effect”. In addition, in data set [2], the selectivity ratio at 48 h was > 83.3. The “inhibition of SOCE” value in data set [3] is “dose-dependent inhibition; also recorded: partially inhibits SOCE in HEK293 cells in a dose-dependent manner; also recorded: dose-dependent effect but with a minor inhibitory effect on SOCE at low concentrations”.
